Assay results published in patent US10072034B2, “Kinase inhibitors” (Respivert Limited, priority 2016, dated 2018).

Assays:
[1] = system: IFN gamma release in PBMCs; experiment: IFN gamma release in CD3/CD28 stimulated PBMC cells (assay (c)); assay type: cell-based; conditions: Homo sapiens, read-out: IC50 Values in PBMCs IFNγ
Procedure: PBMCs from healthy subjects are separated from whole blood using a density gradient (Lymphoprep, Axis-Shield Healthcare). Cells are added to a 96 well plate pre-coated with a mixture of CD3/CD28 monoclonal antibodies (0.3 μg/mL eBioscience and 3 μg/mL BD Pharmingen respectively). Compound at the desired concentration is then added to the wells and the plate left for 3 days under normal tissue culture conditions. Supernatants are harvested and IL-2 and IFN gamma release determined by Sandwich ELISA (Duo-set, R&D System). The IC50 is determined from the dose response curve.

IL-8 release in PBMCs = experiment: LPS-induced IL-8 release in PBMC cells (assay (b)); assay type: cell-based; conditions: Homo sapiens, LPS-stimulated PBMCs
Excerpt: Peripheral blood mononuclear cells (PBMCs) from healthy subjects are separated from whole blood using a density gradient (Lymphoprep, Axis-Shield Healthcare). […] The supernatant is harvested for determination of IL-8 and TNFα concentrations by sandwich ELISA (Duo-set, R&D systems) and read on the fluorescence microplate reader (Varioskan® Flash, ThermoFisher Scientific).

COc1cc(Nc2cc(Oc3ccc(NC(=O)Nc4cc(C(C)(C)C)cc(NS(C)(=O)=O)c4OC)c4ccccc34)ccn2)cc(OCCOCCOCC(=O)O)c1 [Example 3]
IC50 [1]: 31.8 nM
IC50 (IL-8 release in PBMCs): 17.3 nM
